This is an account of results in US20240269308A1, “PRODRUGS OF TOPOISOMERASE I INHIBITOR FOR ADC CONJUGATIONS AND METHODS OF USE THEREOF” (priority 2022, published 2024).

One may read the solubility as the concentration that dissolves in the medium under given conditions. Usually EC50 stands for the midpoint of the concentration-response curve.

≈ marks a conversion by molar mass, not a printed value.

A short description of data set [1]: Mouse whole blood stability test. The format is in vitro ADME. Conditions: 37° C.; for % of test compound in whole blood (initial 1 uM as 100%): mouse blood. The procedure:
In vitro stability of Linker-Prodrug in mouse whole blood Scheme 15. Metabolism of LP1 (M2980) in whole blood.
Stock solution of test compound was provided in 100% DMSO. The stock solution for each compound was diluted into 500 μM with mixture of 50% acetonitrile, then diluted into mouse blood to achieve a final concentration of 1.0 μM. 1.0 μM of test compound in duplicate was incubated in blood at 37° C. Aliquots of 50 uL sample was collected at 0, 15, 30, 60, 120, 240, 480 min, and 24 hours. Reactions were terminated at various time points (0, 15, 30, 60, 120, 240, 480 min, 24 hours) by adding 200 μL of ice-cold acetonitrile containing internal standard with 1% formic acid and then ultrasound for 30 seconds. Plate was centrifuged (4000 rpm, 15 min). 50 μL of supernatants were transferred into a daughter plate containing 200 μL of H2O in each well. The samples were mixed well and analyzed with UPLC-MS/MS.
A Waters liquid chromatographic system was used. Detection was performed on AP14000 Q-Trap and AP15500 mass spectrometer equipped with TurbolonSpray (ESI) Interface (Applied Biosystems, Concord, Ontario, Canada). Analyst 1.5 and 1.6.2 software packages (Applied Biosystems) were used to control the LC-MS/MS system, as well as for data acquisition and processing.
Chromatographic separation was achieved on the Wates BEH C18 column (50*2.1 mm ID, 1.7 μm). The column temperature was maintained at ambient temperature (25° C.). The flow rate was maintained at 0.6 mL/min and the following mobile phases were used: water (0.1% formic acid, v/v) (phase A) and acetonitrile (0.1% formic acid, v/v) (phase B).
Test compounds (1.0 μM) were incubated in blood at 37° C. in duplicate. Aliquots of 50 uL sample was collected at 0, 15, 30, 60, 120, 240, 480 min, and 24 hours. Reactions were terminated at various time points (0, 15, 30, 60, 120, 240, 480 min, 24 hours by adding 200 μL of ice-cold acetonitrile containing internal standard with 1% formic acid, then ultrasound for 30 seconds. The plate was centrifuged (4000 rpm, 15 min). 50 μL of supernatants were transferred into a daughter plate containing 200 μL of water in each well. Samples were mixed well and analyzed with UPLC-MS/MS.
The % was calculated based on initial 1 uM as 100% and the standard concentration curve.

A short description of data set [2]: Special liability / stability (Certificate of Analysis of LP1, physical and chemical properties). The class given is physicochemical. Conditions: LP1 13g lot, free base.
Data set [3] can be described thus: Solubility (Certificate of Analysis of LP1, physical and chemical properties). The format is physicochemical. As to conditions: LP1 13g lot, free base.
Data set [4] in a line: M3385 metabolism in human liver S9 without cofactors NADPH and UDPGA. The class given is in vitro ADME. Conditions: 240 min; for Relative UV Abundance* (%): M3385 incubated in human liver S9 without NADPH and UDPGA, single peak (parent or metabolite). The source says: (§1) Briefly, hepatocytes are complete liver cells, containing various first-phase and second-phase enzymes that can mediate various metabolic reactions; therefore, it is a better in vitro model to test metabolites. Liver S9 is the supernatant obtained by grinding and centrifuging the liver cells. The enzymes content is lower compared to Hepatocytes. It mainly contains CYP enzymes and some biphasic enzymes (but no biphasic coenzyme), so additional coenzyme (NADPH and UDPGA, etc.) is needed to mediate the biphasic reaction.
(§2) Assay buffer: 100 mM potassium phosphate buffer (K+/Mg2+ buffer, pH7.4):
(§3) The initial stock of liver S9 was diluted in K+/Mg^2+ buffer, pH 7.4 from 20 mg/ml to 2× Liver S9 (2 mg/mL) with alamethicin (50 μg/mL):
(§4) 2×LS9/compound M3385 solution was prepared.
(§5) Time zero/T0: 199 μL 2 mg/mL liver S9 solution; 100 μL of 8 mM NADPH solution; 100 μL of 20 mM UDPGA solution; and 1200 μL of ACN were added, vortexed at 1000 rpm for 5 min, then 1 μL of 4 mM test compound solution was added.
T240-without a co-factor: 199 μL 2 mg/mL liver S9 solution and 200 μL of buffer were added. The T240-w/o sample was prewarmed at 37° C. for 5 min and 1 μL of 4 mM test compound solution was added. After 240 min incubation, 1200 μL of ACN was added and then vortexed at 1000 rpm for 5 min.
(§6) Protein precipitation: quenched samples were centrifuged at 14000 rpm for 5 min.
(§7) Sample preparation: an aliquot of 1200 μL of the supernatant was evaporated under N2 stream until dry. Dried extracts were reconstituted with 200 μL of 25% aqueous ACN, vortexed for 2 minutes, centrifuged at 14000 rpm for 5 min, and then 3 μL of reconstituted supernatant were injected for LC-UV-MS analysis.

Data set [5] in a line: M3385 metabolism in human liver S9 with NADPH and UDPGA. The class given is in vitro ADME. Conditions: M3385 incubated in human liver S9 with NADPH and UDPGA, 240 min; single peak (parent or metabolite).
From the text: as §1
The metabolism of model compound M3385 was evaluated in human liver S9 with NADPH and UDPGA as follows:
as §2, §3, §4, §5
T240 with a co-factor: 199 μL 2 mg/mL liver S9 solution; 100 μL of 8 mM NADPH solution; and 100 μL of 20 mM UDPGA solution were added. The T240 sample was prewarmed at 37° C. for 5 min and 1 μL of 4 mM test compound solution was added. After 240 min incubation, 1200 μL of ACN was added and then vortexed at 1000 rpm for 5 min.
as §6, §7

For a further data set, the system named is SK-BR-3 cells. Briefly: SKBR3 cell-based anti-proliferation / viability assay (CellTiter-Glo). The arrangement: species or system human. As to conditions: read-out: SKBR3 EC50. As for the experimental part: The anti-Her2 viability assay protocol is following.
0.1% BSA was added to the Opti-MEM reduced serum media [Gibco, cat #31985-070]. This assay media was used for the dilution of ADC and free drug.
Cells were seeded in their growth media into 96 well plates (Thermo #136101) one day prior to adding ADCs: 1000/well SKBR3 cells in 80 uL media (target positive cells), 1000/well NCI-N87 cells in 80 uL media (target positive cells), 1000/well Calu-3 in 80 uL media (target positive cells), and 800/well NCI-H1975 cells in 80ul media (target negative cells).
Serial dilutions of free drug in 100% DMSO (1:4 10 pts starting from 100 uM) were prepared. Serially diluted payload was transferred into Opti-Mem with 0.1% BSA (10 uL into 990 uL media). Serial dilutions of ADCs/isotype controls at 1:4 in Opti-Mem with 0.1% BSA (starting from 5×1000 nM) were prepared. 20ul assay media diluted ADC/isotype conjugates as well as free drug were transferred to above cells. The plates were incubated at 37° C., 5% CO2 for 6 days. Plates were developed by adding 100ul CellTiter Glo 2.0. RT 5-10 min. Plates were read with Envision plate reader. Data was analyzed using Prism. Only inner 60 well are used for the assay. The edge wells were filled with media to prevent dry out.
The cell line used in the anti-proliferation assays was SK-BR-3, a human breast, adenocarcinoma (pleural effusion) cell line; The cells were grown in McCoy's 5a Medium+10% FBS. To run the assay, the cells (80 μl, 1000 cells) were added to each well in a 96-well plate and incubated for 24 hours at 37° C. with CO2. Next, the cells were treated with test compounds (20 μl) at various concentrations in appropriate cell culture medium (total volume, 0.1 mL). The control wells contain cells and the medium but lack the test compounds. The plates were incubated for 144 hours at 37° C. with CO2. CTG reagent was then added to the wells (100 μl). After the plates were shaken for 10 min and then incubated for 10 min at room temperature, paste the clear bottom with white back seal and record luminescence with Envision. The inhibition % was calculated according to the following equation: inhibition %=[1-(assay-blank)/(control-blank)]×100.
A general note: In ATP-based viability assays light output follows the ATP content of the culture.

The next data set deals with HCT-15. The data set can be described thus: HCT-15 cell killing EC50 (−v / +v). The class given is cell-based.

Consider `CC[C@@]1(O)C(=O)OCc2c1cc1n(c2=O)Cc2c-1nc1cc(F)c(C)c3c1c2[C@@H](NC(=O)COCNC(=O)CNC(=O)OCc1ccc(NC(=O)[C@H](CCCNC(N)=O)NC(=O)[C@@H](NC(=O)CCOCCOCCOCCOCCNC(=O)COC2C#CCCCCC2)C(C)C)cc1)CC3` (stereo partly drawn) [LP1, {4-[(2S)-5-(carbamoylamino)-2-[(2S)-2-{1-[2-(cyclooct-2-yn-1-yloxy)acetamido]-3,6,9,12-tetraoxapentadecan-15-amido}-3-methylbutanamido]pentanamido]phenyl}methyl N-({[({[(10S,23S)-10-ethyl-18-fluoro-10-hydroxy-19-methyl-5,9-dioxo-8-oxa-4,15-diazahexacyclo[14.7.1.0^2,14.0^4,13.0^6,11.0^20,24]tetracosa-1,6(11),12,14,16,18,20(24)-heptaen-23-yl]carbamoyl}methoxy)methyl]carbamoyl}methyl)carbamate], for which the “% of test compound in whole blood (initial 1 uM as 100%)” value in data set [1] (0 hr) is 100.0%; in data set [1] (0.25 hr), 88.8%; in data set [1] (0.5 hr), 82.6%; in data set [1] (1 hr) it was 72.3%; in data set [1] (2 hr), 52.8%; in data set [1] (4 hr), 30.5%. Moreover, the “% of test compound in whole blood (initial 1 uM as 100%)” value is 16.5% in data set [1] (8 hr) and 0.0% in data set [1] (24 hr). For the same molecule, the “Metabolism in whole blood” value in data set [1] (mouse whole blood) was “metabolized to ProDXD, and then to DXd”. Moreover, the “Special liability (light)” value in data set [2] is “Light sensitive”. The “Special liability (pH stability)” value in data set [2] is recorded as “unstable at pH <3 or pH >11”. The solubility in data set [3] (in water) was determined as 0.026 mM (≈ 36.3 µg/mL); in data set [3] (organic solvent or mixture, in DMSO), 10 mM (≈ 14000 µg/mL).
Consider `CC[C@@](O)(C(=O)O)c1cc2n(c(=O)c1CO)Cc1c-2nc2cc(F)c(C)c3c2c1[C@@H](NC(=O)CO)CC3` [MP2R], for which the “Relative UV Abundance* (%)” value in data set [4] worked out at 0.18%; in data set [5] it was 0.14%.
Take `CC[C@@]1(O)C(=O)OCc2c1cc1n(c2=O)Cc2c-1nc1cc(F)c(C)c3c1c2[C@@H](NC(=O)COCNC(=O)CN)CC3` [MP1]: the “Relative UV Abundance* (%), group total” value in data set [4] (human, 10 μM, pH 7.4) was 4.93%.
As to `CC[C@@]1(O)C(=O)OCc2c1cc1n(c2=O)Cc2c-1nc1cc(F)c(C)c3c1c2[C@@H](N)CC3` [EXT, reference compound], the results for the EC50 in the data set on SK-BR-3 cells, in the data set on HCT-15 (+v) and in the data set with HCT-15 (−v) were 0.52 nM, 1.13 nM and 1.22 nM, respectively.
On to `CC[C@@](O)(C(=O)O)c1cc2n(c(=O)c1CO)Cc1c-2nc2cc(F)c(C)c3c2c1[C@@H](NC(=O)COCNC(=O)CN)CC3` [MP1R], for which the “Relative UV Abundance* (%)” value amounted to 0.38% in data set [4] and 0.29% in data set [5].
